Experimental data published in publication PMC11766601, “A Comparative Study of the In Vitro Intestinal Permeability of Pinnatoxins and Portimine” (Marine Drugs, 2025).
Read-outs that look alike come from different tables or passages of the source.

Tests used:
Caco-2 cells = assay: Trans-epithelial electrical resistance (TEER) of differentiated Caco-2 monolayers; format: cell-based, human; conditions: 24 h
Description: (§1) All experiments were performed with human intestinal Caco-2 cells (ATCC-HTB37), acquired from the American Type Culture Collection (ATCC; Manassas, VA, USA). Caco-2 cells originate from a colorectal adenocarcinoma, but upon reaching confluence, they differentiate and express the characteristics of enterocytes. The cells were cultivated in minimum essential medium containing 5.5 mM D-glucose, Earle’s salts, and 2 mM L-alanyl-glutamine (MEM GlutaMAX™, Gibco, Bromont, QC, Canada) supplemented with 10% fetal bovine serum (FBS, Gibco), 1% non-essential amino acids, 50 U/mL penicillin, and 50 μg/mL streptomycin (Gibco) under humidified conditions (37 °C, 5% CO2, 95% humidity). The cells were grown for 3–4 days up to 80% confluence before trypsinization and sub-culture. For the experiments, the cells were seeded in TRANSWELL® plates (12 wells, 0.4 µm pore size; Costar®, Corning Incorporated, Corning, NY, USA) at a density of 90,000 cells/cm^2. Prior to toxin treatment, highly differentiated Caco-2 cells were obtained after 24–26 days of culture, with medium renewal every 2–3 days. Passage numbers between 30 and 40 were used for experiments.
(§2) PnTX-A, PnTX-G, PnTX-E, PnTX-H, and portimine stock solutions were prepared in methanol, while PnTX-F was provided in acetonitrile/acetic acid (50%/0.1%). For each toxin, the cells were incubated at 8, 16, and 32 ng/mL (diluted in HBSS) for 2 h, 6 h, and 24 h, with a final volume of 1.5% solvent. The controls were incubated with the cell culture medium containing the respective solvent of the toxin at 1.5%. Each experiment included three biological replicates. Two to three independent experiments were conducted.
Epithelial integrity was examined by measuring the TEER between the apical and basolateral compartments. After rinsing with a HBSS solution (HBSS, HEPES 5 mM, pH 7.4), the Caco-2 monolayers were equilibrated for 30 min at 37 °C with 300 and 1000 µL HBSS in the apical (A) and basolateral (B) chambers, respectively. Then, the content of the apical compartment was replaced with 500 µL HBSS-containing toxins. TEER was quantified with a Millipore Millicell Electrical Resistance System (ERS Millipore, EMD Millipore Corporation, Burlington, MA, USA). The mean value of two measurements per well before and after the treatment was calculated and multiplied by the surface of the insert to obtain Ω × cm^2. After blank subtraction, the results were presented as a percentage of the solvent control.

Caco-2 cell monolayers [1] = assay: Lucifer Yellow paracellular permeability (barrier integrity); format: cell-based, human; conditions: 24 h; for effect on LY permeability: all concentrations (8, 16, 32 ng/mL)
Description: as §1, §2
For the assay, both compartments of the insert system were washed with Hank’s balanced salt solution (HBSS). Then, 0.5 mL of 0.1 mg/mL Lucifer Yellow in HBSS buffer and 1 mL of pure HBSS buffer were added to the apical and basolateral compartments, respectively. After a 2 h incubation at 37 °C, the media of the basolateral compartments were collected and the fluorescence of each compartment was measured in triplicate (excitation: 405 nm, emission: 520 nm) with a FLUOstar Optima microplate reader (BMG Labtech, Ortenberg, Germany). After subtraction of the blank (HBSS), the permeability of the […] was calculated against the value obtained for pure LY and reported as % permeability.

[2] = Toxin crossing and apparent permeability across Caco-2 cell monolayers (A to B), LC-MS/MS; format: in vitro ADME, human; conditions: human, Caco-2, A to B; for Papp at 2 h, 8 ng/mL / Papp at 6 h, 8 ng/mL: loaded 8 ng/mL; for Papp at 2 h, 16 ng/mL / Papp at 6 h, 16 ng/mL: loaded 16 ng/mL; for Papp at 2 h, 32 ng/mL / Papp at 6 h, 32 ng/mL: loaded 32 ng/mL
Description: as §1, §2
(§3) The apical and basolateral compartments were collected after 2, 6, and 24 h treatment time. Parts of the solutions that were used to load the apical compartments were also stored (T0) to take into account the real concentration and not the estimated concentration. All the samples were stored at −20 °C until LC/MS analysis.
(§4) The LC-MS/MS analysis of toxins was implemented for the quantitative analysis of toxins. The LC system was an Agilent 1200 (Agilent Technologies, Santa Clara, CA, USA). The chromatographic separation was performed using a column Hypersil GOLD® C18 50 mm × 2.1 mm, 1.9 μm (Thermo Scientific, Waltham, MA, USA). Eluent A consisted of water, and eluent B of acetonitrile/water at a ratio of 95:5 (v/v), with both eluents containing 50 mM formic acid and 2 mM ammonium formate. The LC flow rate was 0.4 mL/min, and the gradient was programmed as follows: 10% B held for 0.5 min, 10–90% B in 5 min, 90% B held for 1 min, 90–10% B in 0.5 min, and 10% B held for 3.0 min, for a total run time of 10 min. The injection volume was 5 μL, while the column temperature was maintained at 40 °C. The column effluent was transferred via a divert valve (Valco Instruments Co., Inc., Houston, TX, USA), either to the mass spectrometer (between 1.7 and 5.5 min) or to waste.
(§5) The detection system was constructed with an API 4000 triple quadrupole mass spectrometer (Sciex, Framingham, MA, USA) equipped with an ElectroSpray Ionization (ESI) source (Turbo V). The mass spectrometer was operated in positive ESI mode. The source temperature was set at 600 °C, and the spray voltage was 5500 V. Air was used as a nebulizer gas and an auxiliary gas, with a gas pressure of 40 and 60 psi, respectively. Meanwhile, the curtain gas and collision gas were nitrogen, with a gas pressure of 15 and 8 psi, respectively. The mass spectrometer was operated in multiple reaction monitoring mode (MRM). One transition was used for quantification (Q) and another as a qualifier transition (q). A mass resolution of 0.7 Da full width at half maximum (FWHD) was set on the first (Q1) and the third (Q3) quadrupoles. Instrument control and data were handled with Analyst software version 1.5.1 (Sciex, Framingham, MA, USA).
(§6) The portimine and PnTX retention times varied between 2.7 and 4.4 min (Figure S1). […]

Caco-2 cell monolayers [3] = assay: as above; format: in vitro ADME, human; conditions: for % theoretical amount of toxin crossing the Caco-2 cell monolayers: relative to theoretical loaded concentration; for Percentage of toxin crossing the Caco-2 cell monolayers: A to B, relative to quantified T0; for permeability / oral bioavailability class from Caco-2 Papp: threshold Papp > 1.5 × 10^−6 cm·s^−1 = highly penetrative
Description: as §1, §2, §3, §4, §5, §6

mice [4] = conditions: cited from earlier work
rats = tested on: rats; design: method as in PMID 34380275; conditions: six hours after gavage of rats with [H^3] 100 µg/kg; liver, kidney, spleen, brain regions; cited from earlier work
[5] = design: method as in PMID 32246951; conditions: Anses 2020; cited from earlier work
cancer cells = conditions: cited from earlier work
mice [6] = conditions: cited from earlier work; remark: listed apart in the source

| SMILES | effect on LY permeability (Caco-2 cell monolayers [1]) | Papp at 2 h, 8 ng/mL [2] [×10⁻⁶ cm/s] | Papp at 2 h, 16 ng/mL [2] [×10⁻⁶ cm/s] | Papp at 2 h, 32 ng/mL [2] [×10⁻⁶ cm/s] | Papp at 6 h, 8 ng/mL [2] [×10⁻⁶ cm/s] | Papp at 6 h, 16 ng/mL [2] [×10⁻⁶ cm/s] | Papp at 6 h, 32 ng/mL [2] [×10⁻⁶ cm/s] | % theoretical amount of toxin crossing the Caco-2 cell monolayers (Caco-2 cell monolayers [3]; 2 h, 8 ng/mL) [%] | % theoretical amount of toxin crossing the Caco-2 cell monolayers (Caco-2 cell monolayers [3]; 2 h, 16 ng/mL) [%] | % theoretical amount of toxin crossing the Caco-2 cell monolayers (Caco-2 cell monolayers [3]; 2 h, 32 ng/mL) [%] | Percentage of toxin crossing the Caco-2 cell monolayers (Caco-2 cell monolayers [3]; 2 h, loaded 8 ng/mL) [%] | Percentage of toxin crossing the Caco-2 cell monolayers (Caco-2 cell monolayers [3]; 2 h, loaded 16 ng/mL) [%] | Percentage of toxin crossing the Caco-2 cell monolayers (Caco-2 cell monolayers [3]; 2 h, loaded 32 ng/mL) [%] | % theoretical amount of toxin crossing the Caco-2 cell monolayers (Caco-2 cell monolayers [3]; 6 h, 8 ng/mL) [%] | % theoretical amount of toxin crossing the Caco-2 cell monolayers (Caco-2 cell monolayers [3]; 6 h, 16 ng/mL) [%] | % theoretical amount of toxin crossing the Caco-2 cell monolayers (Caco-2 cell monolayers [3]; 6 h, 32 ng/mL) [%] | Percentage of toxin crossing the Caco-2 cell monolayers (Caco-2 cell monolayers [3]; 6 h, loaded 8 ng/mL) [%] | Percentage of toxin crossing the Caco-2 cell monolayers (Caco-2 cell monolayers [3]; 6 h, loaded 16 ng/mL) [%] | Percentage of toxin crossing the Caco-2 cell monolayers (Caco-2 cell monolayers [3]; 6 h, loaded 32 ng/mL) [%] | permeability / oral bioavailability class from Caco-2 Papp (Caco-2 cell monolayers [3]) | further results |
| --- | --- | --- | --- | --- | --- | --- | --- | --- | --- | --- | --- | --- | --- | --- | --- | --- | --- | --- | --- | --- | --- |
| C=C1CCCC2=NCC(C)C(C)CC23CCC(C2CCC(=O)O2)=CC3C2OC3(CC(C)CC2O3)CC2OC3(CCC4(OC(CCC4(C)O)C1)O3)CC(C)C2O (centres unmarked) [PnTX-F] | significant increase | 8.95 ± 1.69 | 6.28 ± 2.37 | 6.94 ± 2.03 | 16.1 ± 0.24 | 11.4 ± 2.88 | 13.7 ± 1.09 | 4.75 ± 0.35 | 4.00 ± 0.00 | 5.03 ± 0.31 | 14.43 ± 2.73 | 10.12 ± 3.82 | 11.20 ± 3.27 | 8.75 ± 2.12 | 7.44 ± 0.97 | 10.31 ± 2.83 | 26.00 ± 0.52 | 18.36 ± 4.64 | 22.09 ± 1.76 | high oral bioavailability | TEER (Caco-2 cells; 32 ng/mL): 67 ± 5.6 % of the control value; effect on TEER (Caco-2 cells; 8 and 16 ng/mL): slight non-significant decrease; percentage of toxin crossing (text summary over 8-32 ng/mL) (Caco-2 cell monolayers [3]; 2 h): around 12%; macroscopic lesions on the intestine, other organs and tissues (mice [4]; mice, oral exposure): no macroscopic lesions |
| C=CC1=CC2C3OC4(CC5CCCC6(CCC7(OC(CCC7(C)O)CC(=C)CCCC7=NCC(C)C(C)CC72CC1)O6)O5)CC(C)C(O)C3O4 (centres unmarked) [PnTX-G, Pinnatoxin G] | – | 9.69 ± 3.25 | 14.4 ± 2.7 | 14.3 ± 3.45 | 21.4 ± 5.82 | 22.8 ± 3.26 | 26.9 ± 3.82 | 6.83 ± 1.04 | 8.37 ± 1.19 | 8.64 ± 0.53 | 15.62 ± 5.24 | 23.32 ± 4.36 | 23.07 ± 5.56 | 15.17 ± 0.58 | 13.25 ± 1.30 | 16.58 ± 2.86 | 34.43 ± 9.39 | 36.83 ± 5.26 | 43.41 ± 6.15 | high oral bioavailability | effect on TEER (Caco-2 cells; 16 and 32 ng/mL): slight, but non-significant, decrease; effect on passage of LY (Caco-2 cell monolayers [1]): lower effect; effect on the small intestine (mice [4]; mice orally treated with 300 μg/kg and above, villous atrophy, focal degeneration of epithelial cells): alteration of the small intestine; onset of toxicity after oral exposure (mice [4]; oral exposure to a certain dose): within one hour; tissue distribution of radioactivity (rats): radioactivity was distributed in the peripheral organs; provisional acute health-based guidance value [5]: 0.13 μg PnTX-G/kg body weight per day |
| C=CC1=CC2C3O[C@]4(CCC(O4)[C@@H](C)C[C@@H](O)C3=O)C[C@H](O)C3=NCC[C@@]32CC1 (some centres unmarked) [Portimine, portimine] | significant increase | 5.72 ± 0.91 | 9.6 ± 0.55 | 14.4 ± 5.27 | 15 ± 2.29 | 19 ± 349 | 24.5 ± 3.01 | 8.50 ± 1.25 | 13.33 ± 1.69 | 20.73 ± 7.28 | 9.23 ± 1.46 | 15.48 ± 0.89 | 23.25 ± 6.88 | 22.33 ± 3.36 | 26.08 ± 3.00 | 34.60 ± 4.41 | 24.23 ± 3.69 | 30.63 ± 5.62 | 39.45 ± 4.86 | high oral bioavailability | TEER (Caco-2 cells; all of the concentrations (8, 16, 32 ng/mL)): 10.02 ± 0.96 % of control value; mechanism of transport from the apical to the basolateral compartment (Caco-2 cell monolayers [3]; inferred from concentration-dependent Papp): passive diffusion; apoptosis induction (cancer cells; observed by several methods): induces apoptosis; acute intraperitoneal toxicity (mice [6]): not very toxic |
| C=CC1=CC2C3O[C@]4(CCC(O4)[C@@H](C)C[C@@H](O)C3=O)CC(=O)C3=NCC[C@@]32CC1 (some centres unmarked) [Portimine-B, portimine-B, reference compound] | – | – | – | – | – | – | – | – | – | – | – | – | – | – | – | – | – | – | – | – | apoptosis induction (cancer cells; cancer cells): induces apoptosis in cancer cells but with less activity |
